Experiments:
Experiment in all cases: Test C greenhouse herbicide test, pre- and postemergence
Format in all cases: in vivo
[1] = system: barnyardgrass (Echinochloa crus-galli)
Description: (§1) Seeds of plant species selected from blackgrass (Alopecurus myosuroides), ryegrass, Italian (Italian ryegrass, Lolium multiflorum), wheat (winter wheat, Triticum aestivum), galium (catchweed bedstraw, Galium aparine), corn (Zea mays), large crabgrass, large (large crabgrass, Digitaria sanguinalis), foxtail, giant (giant foxtail, Setaria faberii), johnsongrass (Sorghum halepense), lambsquarters (Chenopodium album), morningglory (Ipomoea coccinea), nutsedge, yellow (yellow nutsedge, Cyperus esculentus), pigweed (Amaranthus retroflexus), ragweed (common ragweed, Ambrosia elatior), soybean (Glycine max), barnyardgrass (Echinochloa crus-galli), oilseed rape (Brassica napus), waterhemp (common waterhemp, Amaranthus rudis), and velvetleaf (Abutilon theophrasti) were planted into a blend of loam soil and sand and treated preemergence with test chemicals formulated in a non-phytotoxic solvent mixture which included a surfactant.
(§2) At the same time, plants selected from these crop and weed species and also chickweed (common chickweed, Stellaria media), kochia (Kochia scoparia), and oat, wild (wild oat, Avena fatua), were planted in pots containing Redi-Earth® planting medium (Scotts Company, 14111 Scottslawn Road, Marysville, Ohio 43041) comprising spaghnum peat moss, vermiculite, wetting agent and starter nutrients and treated with postemergence applications of test chemicals formulated in the same manner. Plants ranged in height from 2 to 18 cm (1- to 4-leaf stage) for postemergence treatments. Treated plants and controls were maintained in a greenhouse for 13 to 15 d, after which time all species were compared to controls and visually evaluated. Plant response ratings, summarized in Table C, are based on a scale of 0 to 100 where 0 is no effect and 100 is complete control. A dash (-) response means no test result.

[2] = system: blackgrass (Alopecurus myosuroides)
Description: as §1, §2

corn (Zea mays) = system: corn (Zea mays)
Description: as §1, §2

[3] = system: foxtail, giant (giant foxtail, Setaria faberii)
Description: as §1, §2

[4] = system: galium (catchweed bedstraw, Galium aparine)
Description: as §1, §2

[5] = system: johnsongrass (Sorghum halepense)
Description: as §1, §2

[6] = system: lambsquarters (Chenopodium album)
Description: as §1, §2

[7] = system: morningglory (Ipomoea coccinea)
Description: as §1, §2

[8] = system: nutsedge, yellow (yellow nutsedge, Cyperus esculentus)
Description: as §1, §2

[9] = system: pigweed (Amaranthus retroflexus)
Description: as §1, §2

[10] = system: ragweed (common ragweed, Ambrosia elatior)
Description: as §1, §2

[11] = system: ryegrass, Italian (Italian ryegrass, Lolium multiflorum)
Description: as §1, §2

soybean (Glycine max) = system: soybean (Glycine max)
Description: as §1, §2

[12] = system: velvetleaf (Abutilon theophrasti)
Description: as §1, §2

[13] = system: waterhemp (common waterhemp, Amaranthus rudis)
Description: as §1, §2

[14] = system: wheat (winter wheat, Triticum aestivum)
Description: as §1, §2

[15] = Postemergence, 31 g ai/ha, 0 to 100 scale (0 no effect, 100 complete control)
[16] = Postemergence, 125 g ai/ha, scale 0 to 100, 0 is no effect, 100 is complete control
[17] = Postemergence, 250 g ai/ha, scale 0 to 100, 0 no effect, 100 complete control, 13 to 15 d
[18] = Preemergence, 31 g ai/ha, scale 0 to 100, 0 is no effect, 100 is complete control
[19] = Preemergence, 62 g ai/ha, scale 0 to 100, 0 is no effect, 100 is complete control
[20] = Preemergence, 125 g ai/ha, scale 0 to 100, 0 is no effect, 100 is complete control
[21] = Preemergence, 250 g ai/ha, scale 0 to 100 (0 no effect, 100 complete control)
[22] = postemergence, 62 g ai/ha, scale 0 to 100, 0 no effect, 100 complete control

CCC(=O)Oc1c(C)nn(C)c(=O)c1-c1c(C)sc2c(C)cc(C)cc12 [Compound 28]
Barnyardgrass plant response rating [1, 15]: 20
Plant response rating, Barnyardgrass [1, 16]: 35
Plant response rating, Barnyardgrass [1, 17]: 40
Plant response rating, Barnyardgrass [1, 18]: 45
Plant response rating, Barnyardgrass [1, 19]: 75
Plant response rating, Barnyardgrass [1, 20]: 90
Barnyardgrass plant response rating [1, 21]: 95
Barnyardgrass plant response rating [1, 22]: 25
Blackgrass plant response rating [2, 15]: 50
Plant response rating, Blackgrass [2, 16]: 80
Plant response rating, Blackgrass [2, 17]: 90
Plant response rating, Blackgrass [2, 18]: 85
Plant response rating, Blackgrass [2, 19]: 90
Plant response rating, Blackgrass [2, 20]: 90
Blackgrass plant response rating [2, 21]: 90
Blackgrass plant response rating [2, 22]: 70
Corn plant response rating (corn (Zea mays); [15]): 5
Plant response rating, Corn (corn (Zea mays); [16]): 5
Plant response rating, Corn (corn (Zea mays); [17]): 15
Plant response rating, Corn (corn (Zea mays); [18]): 0
Plant response rating, Corn (corn (Zea mays); [19]): 0
Plant response rating, Corn (corn (Zea mays); [20]): 30
Corn plant response rating (corn (Zea mays); [21]): 15
Corn plant response rating (corn (Zea mays); [22]): 5
Foxtail, Giant plant response rating [3, 15]: 60
Plant response rating, Foxtail, Giant [3, 16]: 85
Plant response rating, Foxtail, Giant [3, 17]: 95
Plant response rating, Foxtail, Giant [3, 18]: 85
Plant response rating, Foxtail, Giant [3, 19]: 100
Plant response rating, Foxtail, Giant [3, 20]: 100
Foxtail, Giant plant response rating [3, 21]: 100
Foxtail, Giant plant response rating [3, 22]: 80
Galium plant response rating [4, 15]: 100
Plant response rating, Galium [4, 16]: 100
Plant response rating, Galium [4, 17]: 100
Plant response rating, Galium [4, 18]: 95
Plant response rating, Galium [4, 19]: 95
Plant response rating, Galium [4, 20]: 95
Galium plant response rating [4, 21]: 95
Galium plant response rating [4, 22]: 100
Johnsongrass plant response rating [5, 15]: 5
Plant response rating, Johnsongrass [5, 17]: 30
Plant response rating, Johnsongrass [5, 18]: 0
Plant response rating, Johnsongrass [5, 19]: 0
Plant response rating, Johnsongrass [5, 20]: 5
Johnsongrass plant response rating [5, 21]: 10
Johnsongrass plant response rating [5, 22]: 5
Lambsquarters plant response rating [6, 15]: 85
Plant response rating, Lambsquarters [6, 16]: 100
Plant response rating, Lambsquarters [6, 17]: 100
Plant response rating, Lambsquarters [6, 18]: 65
Plant response rating, Lambsquarters [6, 19]: 85
Plant response rating, Lambsquarters [6, 20]: 85
Lambsquarters plant response rating [6, 21]: 90
Lambsquarters plant response rating [6, 22]: 98
Morningglory plant response rating [7, 15]: 95
Plant response rating, Morningglory [7, 16]: 100
Plant response rating, Morningglory [7, 17]: 100
Plant response rating, Morningglory [7, 18]: 80
Plant response rating, Morningglory [7, 19]: 98
Plant response rating, Morningglory [7, 20]: 98
Morningglory plant response rating [7, 21]: 100
Morningglory plant response rating [7, 22]: 98
Nutsedge, Yellow plant response rating [8, 15]: 75
Plant response rating, Nutsedge, Yellow [8, 16]: 85
Plant response rating, Nutsedge, Yellow [8, 17]: 90
Plant response rating, Nutsedge, Yellow [8, 18]: 50
Plant response rating, Nutsedge, Yellow [8, 19]: 75
Plant response rating, Nutsedge, Yellow [8, 20]: 85
Nutsedge, Yellow plant response rating [8, 21]: 70
Nutsedge, Yellow plant response rating [8, 22]: 85
Pigweed plant response rating [9, 15]: 60
Plant response rating, Pigweed [9, 16]: 90
Plant response rating, Pigweed [9, 17]: 90
Plant response rating, Pigweed [9, 18]: 100
Plant response rating, Pigweed [9, 19]: 100
Plant response rating, Pigweed [9, 20]: 100
Pigweed plant response rating [9, 21]: 100
Pigweed plant response rating [9, 22]: 85
Ragweed plant response rating [10, 15]: 65
Plant response rating, Ragweed [10, 16]: 85
Plant response rating, Ragweed [10, 17]: 90
Plant response rating, Ragweed [10, 18]: 70
Plant response rating, Ragweed [10, 19]: 90
Plant response rating, Ragweed [10, 20]: 95
Ragweed plant response rating [10, 21]: 90
Ragweed plant response rating [10, 22]: 75
Ryegrass, Italian plant response rating [11, 15]: 80
Plant response rating, Ryegrass, Italian [11, 16]: 90
Plant response rating, Ryegrass, Italian [11, 17]: 95
Plant response rating, Ryegrass, Italian [11, 18]: 85
Plant response rating, Ryegrass, Italian [11, 19]: 90
Plant response rating, Ryegrass, Italian [11, 20]: 95
Ryegrass, Italian plant response rating [11, 21]: 95
Ryegrass, Italian plant response rating [11, 22]: 85
Soybean plant response rating (soybean (Glycine max); [15]): 0
Plant response rating, Soybean (soybean (Glycine max); [16]): 0
Plant response rating, Soybean (soybean (Glycine max); [17]): 5
Plant response rating, Soybean (soybean (Glycine max); [19]): 25
Plant response rating, Soybean (soybean (Glycine max); [20]): 0
Soybean plant response rating (soybean (Glycine max); [21]): 50
Soybean plant response rating (soybean (Glycine max); [22]): 0
Velvetleaf plant response rating [12, 15]: 70
Plant response rating, Velvetleaf [12, 16]: 85
Plant response rating, Velvetleaf [12, 17]: 90
Plant response rating, Velvetleaf [12, 19]: 85
Plant response rating, Velvetleaf [12, 20]: 90
Velvetleaf plant response rating [12, 21]: 95
Velvetleaf plant response rating [12, 22]: 85
Waterhemp plant response rating [13, 15]: 60
Plant response rating, Waterhemp [13, 16]: 85
Plant response rating, Waterhemp [13, 17]: 85
Plant response rating, Waterhemp [13, 19]: 75
Plant response rating, Waterhemp [13, 20]: 85
Waterhemp plant response rating [13, 21]: 100
Waterhemp plant response rating [13, 22]: 75
Wheat plant response rating [14, 15]: 0
Plant response rating, Wheat [14, 16]: 0
Plant response rating, Wheat [14, 17]: 5
Plant response rating, Wheat [14, 19]: 0
Plant response rating, Wheat [14, 20]: 0
Wheat plant response rating [14, 21]: 10
Wheat plant response rating [14, 22]: 0

COc1nn(C)c(=O)c(-c2c(C)sc3ccccc23)c1O [Compound 33]
Barnyardgrass plant response rating [1, 15]: 25
Plant response rating, Barnyardgrass [1, 16]: 50
Plant response rating, Barnyardgrass [1, 17]: 80
Barnyardgrass plant response rating [1, 22]: 25
Blackgrass plant response rating [2, 15]: 0
Plant response rating, Blackgrass [2, 16]: 5
Plant response rating, Blackgrass [2, 17]: 10
Blackgrass plant response rating [2, 22]: 0
Corn plant response rating (corn (Zea mays); [15]): 0
Plant response rating, Corn (corn (Zea mays); [16]): 5
Plant response rating, Corn (corn (Zea mays); [17]): 20
Corn plant response rating (corn (Zea mays); [22]): 5
Foxtail, Giant plant response rating [3, 15]: 20
Plant response rating, Foxtail, Giant [3, 16]: 60
Plant response rating, Foxtail, Giant [3, 17]: 70
Foxtail, Giant plant response rating [3, 22]: 40
Galium plant response rating [4, 15]: 90
Plant response rating, Galium [4, 16]: 95
Plant response rating, Galium [4, 17]: 95
Galium plant response rating [4, 22]: 90
Johnsongrass plant response rating [5, 15]: 0
Plant response rating, Johnsongrass [5, 16]: 5
Plant response rating, Johnsongrass [5, 17]: 40
Johnsongrass plant response rating [5, 22]: 5
Lambsquarters plant response rating [6, 15]: 90
Plant response rating, Lambsquarters [6, 16]: 98
Plant response rating, Lambsquarters [6, 17]: 100
Lambsquarters plant response rating [6, 22]: 95
Morningglory plant response rating [7, 15]: 85
Plant response rating, Morningglory [7, 16]: 95
Plant response rating, Morningglory [7, 17]: 98
Morningglory plant response rating [7, 22]: 95
Nutsedge, Yellow plant response rating [8, 15]: 5
Plant response rating, Nutsedge, Yellow [8, 16]: 45
Plant response rating, Nutsedge, Yellow [8, 17]: 65
Nutsedge, Yellow plant response rating [8, 22]: 15
Pigweed plant response rating [9, 15]: 30
Plant response rating, Pigweed [9, 16]: 65
Plant response rating, Pigweed [9, 17]: 80
Pigweed plant response rating [9, 22]: 50
Ragweed plant response rating [10, 15]: 85
Plant response rating, Ragweed [10, 16]: 90
Plant response rating, Ragweed [10, 17]: 98
Ragweed plant response rating [10, 22]: 95
Ryegrass, Italian plant response rating [11, 15]: 30
Plant response rating, Ryegrass, Italian [11, 16]: 70
Plant response rating, Ryegrass, Italian [11, 17]: 75
Ryegrass, Italian plant response rating [11, 22]: 45
Soybean plant response rating (soybean (Glycine max); [15]): 0
Plant response rating, Soybean (soybean (Glycine max); [16]): 0
Plant response rating, Soybean (soybean (Glycine max); [17]): 0
Soybean plant response rating (soybean (Glycine max); [22]): 0
Velvetleaf plant response rating [12, 15]: 10
Plant response rating, Velvetleaf [12, 16]: 75
Plant response rating, Velvetleaf [12, 17]: 85
Velvetleaf plant response rating [12, 22]: 60
Waterhemp plant response rating [13, 15]: 25
Plant response rating, Waterhemp [13, 16]: 65
Plant response rating, Waterhemp [13, 17]: 75
Waterhemp plant response rating [13, 22]: 30
Wheat plant response rating [14, 15]: 0
Plant response rating, Wheat [14, 16]: 0
Plant response rating, Wheat [14, 17]: 0
Wheat plant response rating [14, 22]: 0
